In patent publication US9334280B2, “Synthetic rigidin analogues as anticancer agents, salts, solvates and prodrugs thereof, and method of producing same” (New Mexico Technical Research Foundation, priority 2012, dated 2016):

System: UM-SCC10B head and neck metastases cells
Experiment: MTT antiproliferative assay, UM-SCC10B
Type: cell-based
Settings: Table 1A, 48 h, read-out: Concentration required to reduce the viability of cells by 50%, UM-SCC10B
Experimental: To evaluate antiproliferative properties of the compounds of Formula I, mitochondrial dehydrogenase activities were measured using the MTT assay. The cell lines were prepared by trypsinizing and seeding […] cells per well into microplates. All compounds were reconstituted in dimethyl sulfoxide (DMSO) at a concentration of either 100 mM or 25 mM prior to treatment. The cells were grown for 24 hrs before treatment at concentrations ranging from 0.004 to 100 microM and incubated for 48 hrs in 200 microL media. 20 microL of MTT reagent in serum free medium (5 mg/mL) was added to each well and incubated further for 2 hrs. Media was removed and the resulting formazan crystals were re-solubilized in 100 microL of DMSO and the optical density (OD) was measured using a Thermomax Molecular Device plate reader at a wavelength of 490 nm. The experiments were performed in quadruplicate and repeated at least twice for each compound per cell line. Cells treated with 0.1% DMSO were used as a negative control, while phenyl arsine oxide (PAO) was used as a positive killing control.

Compound: O=C(c1ccccc1)c1[nH]c2[nH]cnc(=O)c2c1-c1cc(Br)cc(Br)c1 [Rig8, 6-Benzoyl-5-(3,5-dibromophenyl)-1H-pyrrolo[2,3-d]pyrimidin-4(7H)-one]
- IC50: 100 nM
